The text below walks through data of ChEMBL document CHEMBL5625209, “Rational design and optimization of acylthioureas as novel potent influenza virus non-nucleoside polymerase inhibitors” (Eur J Med Chem, 2023).

SMILES strings stand for the structures.

In general, EC50 refers to the concentration that produces a half-maximal response. Read a high EC50 as weaker potency.

The test system of the assay is Influenza A virus. The assay can be described thus: Antiviral activity against Influenza A virus H1N1 (A/Puerto Rico/8/34) harboring H274Y mutant infected in MDCK cells. The class given is functional, organism-based.

The compound `CCC(=O)Nc1ccc(NC(=S)NC(=O)c2ccc(C(C)(C)C)cc2)cc1` came in with an EC50 of 5400 nM. With `CC(C)(C)c1ccc(C(=O)NC(=S)Nc2ccc(NC(=O)c3ccc(Cl)cc3)cc2)cc1` the figure was 400 nM; with `CC(C)(C)c1ccc(C(=O)NC(=S)Nc2ccc(NC(=O)c3ccccc3)cc2)cc1`, 600 nM; with `CC(C)(C)c1ccc(C(=O)NC(=S)Nc2ccc(O)cc2)cc1`, 9400 nM. For `CC(C)(C)c1ccc(C(=O)NC(=S)Nc2ccc(NC(=O)c3ccc(C(C)(C)C)cc3)cc2)cc1` the value was 20 nM.
